Measurements published in ChEMBL document CHEMBL1129231, “Bone targeted drugs 2. synthesis of estrogens with hydroxyapatite affinity” (Bioorg Med Chem Lett, 1996).

Legend:
Estrogen receptor = Estrogen receptor (Rattus norvegicus, UniProt P06211+Q62986); experiment: Binding affinity for rat estrogen receptor; type: protein assay
Ishikawa = experiment: Agonist activity in Ishikawa human endometrial cells; type: functional, cell-based
[1] = molecular target: Estrogen receptor (Rattus norvegicus) (UniProt P06211+Q62986); experiment: Relative efficacy for estrogen receptor compared to estradiol; type: protein assay

| Structure (SMILES) | IC50 (Estrogen receptor) | EC50 (Ishikawa) | Emax [1] |
| --- | --- | --- | --- |
| CC[C@@H](c1ccc(O)cc1)[C@H](CCCCn1cc(C(=O)O)c(=O)[nH]1)c1ccc(O)cc1 | 5 µM | 1.1 µM | – |
| CC[C@@H](c1ccc(O)cc1)[C@H](Cn1cc(C(=O)O)c(=O)[nH]1)c1ccc(O)cc1 | 100 µM | 20 µM | – |
| CC[C@H](c1ccc(O)cc1)[C@@H](CC)c1ccc(O)cc1 [HEXESTROL] | 0.002 µM | 0.0001 µM | 80% |
| CC[C@@H](c1ccc(O)cc1)[C@H](CCCCn1cc(C(=O)O)cn1)c1ccc(O)cc1 | – | 1.6 µM | – |
